According to US5476953A, “Biologically active amides containing a bicyclo moiety” (Cornell Research Foundation, Inc., priority 1994, dated 1995):
Values joined by “and” are separate entries in the source; they are usually repeats but may differ in a detail not shown here. Identical values can stand only once.

Legend:
[1] = tested on: M109 mouse lung tumor, sc; assay: In vivo antitumor activity against sc implanted M109 mouse lung tumor; conditions: for MST % T/C: active ≥125%; for T-C: time to 1 g tumor, activity criterion approximately 4 days
Procedure: (§1) For evaluation of antitumor activity versus M109 mouse lung tumors, experiments were begun by implanting 0.5 ml of a 2.0% brei ip or 0.1 ml subcutaneously (sc) in CDF1 mice as described in Rose, W. C., Cancer Treat. Rep. 65: 299-312 (1981). Icadamide B was administered either intraperitoneally (ip), intravenously (iv) or subcutaneously (sc) by alzet pump according to dosage amounts and schedule set forth in Table IV below. Results are expressed as % T/C, i.e., percentage of median survival time of treated (T) versus control (C) groups. A % T/C of ≥125% was considered an active result. Results are also expressed in terms of tumor growth inhibition, particularly the median times for tumors in treated (T) mice to reach a 1 g size minus the median times for control (C) mice to reach a 1 g size, denoted T-C. Tumor weights were interchangeable with tumor size on the basis of 1 mm^3 =1 mg. The activity criterion for T-C is approximately equal to 4 days. Depending on the tumor volume doubling time for M109 tumors in control mice, this amount of delay in tumor growth is consistent with about one log of cell kill.

[2] = tested on: HCT116 human colon carcinoma cells; assay: In vitro cytotoxicity, crystal violet assay, HCT116 human colon carcinoma; type: cell-based; conditions: HCT-116, inhibition of cell proliferation to 50% of untreated control, 72 hours
Procedure: Methanolic extract, obtained on thawing about 1 g frozen sponge by immersion in 20 ml methanol, was assessed for in vitro cytotoxicity in HCT116 human colon carcinoma cells using the crystal violet assay as described in Catino, J. J., et al, Cancer Chemothr. Pharmacol. 15: 240-243, 1985. Particularly, cells were plated at 4000 cells/well in 96 well microtiter plates and 24 hours later samples were added and serial diluted. The cells were incubated at 37° C. for 72 hours. The media was then removed and the cells fixed for 10 minutes with 3.7% formaldehyde in 1 X phosphate buffered saline. The fixing solution was removed and the cells stained with a 0.0075% crystal violet solution for 15 minutes. The cells were then allowed to dry. Rough IC50 values (IC50 being the drug concentration required to inhibit cell proliferation to 50% of that of untreated control cells), expressed as a dilution factor from a 2 mg/ml starting concentration, were determined by visual examination, compared to untreated control wells.
Cytotoxicity was assessed for pure Icadamide A and for pure Icadamide B in an HCT116 human colon carcinoma cell line by the crystal violet assay described previously. […] The IC50 is the drug concentration required to inhibit cell proliferation to 50% of that of untreated control cells.

[3] = tested on: asbestos-induced pulmonary squamous cell carcinoma (ASB), ip; assay: In vivo antitumor activity against ip implanted asbestos-induced pulmonary squamous cell carcinoma (ASB); parameters: species or system mouse
Procedure: (§2) For evaluation of antitumor activity versus the asbestos-induced pulmonary squamous cell carcinoma (ASB), CDF1 mice were implanted either intraperitoneally (ip) or subcutaneously (sc) with 0.5 ml or 0.1 ml of a 2% brei, respectively. […] Results were evaluated on the same basis as described above for M109 mouse lung tumors except that the activity criterion for tumor growth inhibition was a T-C of ≥6 days.

[4] = tested on: M109 mouse lung tumor, ip; assay: In vivo antitumor activity against ip implanted M109 mouse lung tumor; conditions: for MST % T/C: qd 1-5, ip, active ≥125%
Procedure: as §1

[5] = tested on: asbestos-induced pulmonary squamous cell carcinoma (ASB), sc; assay: In vivo antitumor activity against sc implanted asbestos-induced pulmonary squamous cell carcinoma (ASB); parameters: species or system mouse
Procedure: as §2

P388 mouse leukemia, ip = assay: In vivo antitumor activity against ip implanted P388 mouse leukemia
Procedure: For evaluation of antitumor activity against P388 mouse leukemia cells, 1 X 10^6 P 388 leukemia cells were implanted in the intraperitoneal (ip) cavity of (BALB/c X DBA/2)F1 (CDF1) or (C57BL/6 X DBA/2)F1 (BDF1) mice according to the procedure as described in Rose, W. C., et al, Cancer Res. 43: 1504-1510 (1983). Icadamide B was dissolved in DMSO and diluted with saline to the desired concentrations. Injection of Icadamide B was by the ip route beginning on the first day after tumor implantation and consecutively every day for five treatments (q1dX5:1). Increases in lifespan were reflected by the median survival time of treated (T) versus control (C) groups for which a % T/C was calculated. A % T/C of ≥125% was considered an active result.

[6] = a) 0.020 mg/kg/inj, d. 1, 4 & 7, iv
[7] = b) 0.128 mg/kg/inj, d. 1, 3, 5, 7 & 9, iv
[8] = e) 0.032-0.0537 mg/kg daily, qd 4-10, subcutaneously implanted Alzet pump (scap)

With C=C1CC(OC)(C(O)C(=O)NC2OCOC3C2OC(CC(O)/C=C/CCCCCCO)C(C)(C)C3OC)OC(C)C1C (centres unmarked) [Icadamide B] the “MST % T/C” value [1, 6] was 135%, the T-C [1, 6] was -0.3 days and the “MST % T/C” value [1, 7] was 97%. The T-C [1, 7] was 0 days, the “MST % T/C” value ([1]; c) 0.016 mg/kg/inj, qd 4-8, iv) was 119% and the T-C ([1]; c) 0.016 mg/kg/inj, qd 4-8, iv) was 0.3 days. The “MST % T/C” value ([1]; d) 0.013 mg/kg/inj, qd 4-8, ip) was 109%, the T-C ([1]; d) 0.013 mg/kg/inj, qd 4-8, ip) was 2.5 days and the “MST % T/C” value [1, 8] was 102%. The T-C [1, 8] was 3.3 days, the “increase in lifespan (in words)” value ([1]; sc implanted M109) was “marginal increases in lifespan” and the “tumor growth delay (in words)” value ([1]; sc implanted M109) was “negligible tumor growth delays”. For the same molecule, the IC50 [2] was 0.17 nM, the “MST % T/C” value ([3]; 0.008 mg/kg/inj, qd 4-8, ip, active ≥125%) was 121% and the “activity (in words)” value ([3]; ip implanted ASB) was “poor activity”. For the same molecule, the “MST % T/C” value ([4]; a) 0.016 mg/kg/inj) was 163%, the “MST % T/C” value ([4]; b) 0.008 mg/kg/inj) was 150% and the “activity (in words)” value ([4]; ip implanted M109) was “good activity”. For the same molecule, the “increase in lifespan” value ([4]; maximally tolerated doses, ip) was 63% and 50%, the “MST % T/C” value ([5]; 0.032/0.128 mg/kg/inj, qd 4-8, iv, active ≥125%) was 129% and the T-C ([5]; 0.032/0.128 mg/kg/inj, qd 4-8, iv, time to 1 g tumor, activity criterion ≥6 days) was 3.0 days and 3 days. The “distal site activity (in words)” value ([5]; sc implanted ASB) was “little distal site activity”, the “MST % T/C” value (P388 mouse leukemia, ip; 0.016 mg/kg/inj, qd 1-5, ip; two separate experiments a) and b), active ≥125%) was 181% and 143% and the “activity (in words)” value (P388 mouse leukemia, ip; ip implanted P388) was “good activity”. The increase in lifespan (P388 mouse leukemia, ip; maximally tolerated dose, ip, two separate experiments) was 43% and 81%.

Work on C=C1CC(OC)(C(O)C(=O)NC2OCOC3C2OC(CC(O)/C=C/C/C=C/C=C/C(=O)NC(CCCNC(=N)N)C(=O)O)C(C)(C)C3OC)OC(C)C1C (centres unmarked) [Icadamide A] yielded an IC50 [2] of 63 nM.
